Tests used:
Assay type in all cases: cell-based, human
[1] = test system: HOTAIR; assay: siRNA-mediated knockdown of HOTAIR in HRECs, RT-qPCR; settings: for reduction of HOTAIR RNA levels: HG-cultured HRECs, 48 hours, compared to SCR HG controls; for transcript levels of VEGF-A, ET-1 and ANGPTL4: custom double-stranded siRNAs, HRECs, HG
Description: Human retinal microvascular endothelial cells (HRECs; Cell Systems, Kirkland, Wash., USA; catalog number ACBRI 181), mouse retinal microvascular endothelial cells (MRECs; Applied Biological Materials Inc., Richmond, BC, CAN), and primary lung endothelial cells (MLECs) from C57BL/6J mice were cultured in endothelial basal media-2 (EBM-2, Lonza, Walkersville, Md., USA) containing endothelial growth media-2 (EGM-2) SingleQuots (Lonza). All cells were grown in 75 cm^2 culture flasks and maintained in a humidified incubator containing 5% CO2 at 37° C. As described previously (22,55,56), in order to reduce variability for experimentation, cells were used between passages three and six and the cellular densities were determined accordingly based on the type of culture plates used for each experiment. Generally, once 80% confluence was obtained post-seeding, ECs were cultured in serum and growth factor-free medium overnight before exposure to different D-glucose levels (final glucose concentrations of 5 mmol/L, mimicking normoglycemia [NG], and 25 mmol/L, mimicking hyperglycemia [HG]) for various durations; the selected glucose levels are based on a large volume of previous experiments (22,27,33,55-57). All in vitro or ex vivo experiments were independently repeated at least three times and performed with six replicates, unless specified.
HRECs were transfected using scrambled siRNAs (ID number: AM4635 [SCR], Thermo Fisher Scientific) or pre-designed siRNAs targeting human HOTAIR (ID: n272221 [si1-HOTAIR], Thermo Fisher Scientific; n272222 [si2-HOTAIR], Thermo Fisher Scientific; R-187951-00-0005 [SMARTpool siHOTAIR], Horizon Discovery; Table 6, top panel), EZH2 (ID: M-004218-03-0005 [SMARTpool si-EZH2], Horizon Discovery), CTCF (ID: M-020165-02-0005 [SMARTpool siCTCF], Horizon Discovery), DNMT1 (ID: s4216 [siDNMT1], Thermo Fisher Scientific) or mouse Hotair (ID: R-173526-00-0005 [SMARTpool siHOTAIR], Horizon Discovery, Table 6, bottom panel) using Lipofectamine 2000 (Invitrogen, Burlington, ON, Canada) and Opti-MEM reduced serum media (Thermo Fisher Scientific). As documented previously by us (22,27,33,55-57), cells were transfected with 100 nM of each siRNA for 3-4 hours and subsequently recovered in complete EBM-2 overnight. Cells were then serum starved the following morning, between 18-24 hours, and then incubated with specific glucose concentrations (5 mmol/L or 25 mmol/L) for 48 hours. Knockdown of the target genes were then confirmed using RT-qPCR.
(§1) As extensively described by us (22,27,33,55-57), total RNA was extracted using the TRIzol reagent (Invitrogen). Once total RNA was obtained, a spectrophotometer (260 nm; Gene Quant, Pharmacia Biotech, USA) was used to quantify RNA concentrations in which 1-2 μg of total RNA was reverse transcribed to complementary DNA (cDNA) using a high-capacity cDNA reverse-transcription kit (Applied Biosystems/Thermo Fisher Scientific). cDNA was then amplified in the LightCycler 96 System (Roche Diagnostics, Laval, QC, CAN) using the SYBR-green master mix (Takara Bio, Mountain View, Calif., USA) and specific primers for the genes of interest (Sigma; Tables 1-2). RT-qPCR results were analyzed using the LightCycler 96 SW 1.1 software (Roche) and expression levels were calculated by the relative standard curve method using β-actin as an internal control for sample normalization.

[2] = test system: HRECs; assay: 5-aza-dC pre-treatment of HRECs, RT-qPCR
Description: (§2) Following the concentrations documented in previous studies, DZNep (Cayman Chemical, Ann Arbor, Mich., USA; 5 μM), 5-aza-dC (Sigma, St. Louis, USA; 5 μM) or 2-DG (Sigma; 0.6 mM and 5 mM) pre-treatment was applied to HRECs for 1 hour prior to the addition of D-glucose (22,27,55,58). DZNep, 5-aza-dC or 2-DG-treated HRECs and their respective controls were collected at 48 hours for further analyses.
as §1

[3] = test system: HRECs; assay: 2-DG pre-treatment of HRECs, RT-qPCR
Description: as §2, §1

[4] = test system: HRECs; assay: Trypan blue exclusion assay; settings: 2-DG-treated HRECs, data not shown
[5] = test system: HRECs; assay: DZNep pre-treatment of HRECs, RT-qPCR
Description: as §2, §1

[6] = 5-aza-dC 5 μM, HRECs, compared to HG controls
[7] = DZNep 5 μM plus HG, 48 hours, compared to SCR HG cells

siHOTAIR SB4: custom 21-nt duplex siRNA; sense GUGUAUAUAUAAUAAUGUAUU, antisense UACAUUAUUAUAUAUACACAA; HOTAIR target position 2160-2182 (RNA, backbone not given here) [custom 21-nt duplex siRNA; HOTAIR target position 2160-2182]
reduction of HOTAIR RNA levels [1]: ~32%

siHOTAIR SB2: custom 21-nt duplex siRNA; sense CAUAAACAAUAUAUCUGUUGG, antisense AACAGAUAUAUUGUUUAUGAG; HOTAIR target position 1156-1178 (RNA, backbone not given here) [custom 21-nt duplex siRNA; HOTAIR target position 1156-1178]
reduction of HOTAIR RNA levels [1]: ~41% | transcript levels of VEGF-A, ET-1 and ANGPTL4 [1]: greatest reductions

Nc1ncn([C@H]2C[C@H](O)[C@@H](CO)O2)c(=O)n1 [5-aza-dC, 5-Aza-2′-deoxycytidine]
reduction of DNMT3A RNA levels [2, 6]: ~58% | reduction of DNMT3B RNA levels [2, 6]: ~69% | ANGPTL4, P300 and PARP1 expressions ([2]; 5-aza-dC-treated HRECs, HG): no significant differences | HOTAIR, ET-1, CTCF, Cytochrome B, MCP-1, IL-1β, HOXD3 and HOXD10 transcripts ([2]; 5-aza-dC-treated HRECs, HG): significant elevations | glucose-induced increases in VEGF-A RNA expressions ([2]; 5-aza-dC-treated HRECs, HG): significantly prevented | HOTAIR expressions and its downstream targets ([2]; summary statement in Example 3): can reduce

O=CC[C@@H](O)[C@H](O)[C@H](O)CO [2-DG, 2-deoxy-D-glucose]
HOXD3 and HOXD10 expressions ([3]; 5 mM 2-DG, HRECs cultured with HG, compared to HG controls): significantly upregulated | PARP1 and P300 expressions ([3]; 5 mM 2-DG, HRECs, HG): did not induce significant reductions | expressions of DNMT3A and DNMT3B ([3]; 5 mM of 2-DG, HRECs, HG): no differences were observed | expressions of EZH2, SUZ12, EED and DNMT1 ([3]; 5 mM of 2-DG, HRECs, HG): significant reductions | HG-induced expressions of HOTAIR, VEGF-A, ET-1, ANGPTL4, MCP-1, IL-1β, CTCF and Cytochrome B ([3]; 2-DG 0.6 or 5 mM, HRECs, HG 48 hours): significantly blocked | viability [4]: 45-55%

siHOTAIR SB3: custom 21-nt duplex siRNA; sense CUCUAUAAUAUGCUUAUAUUA, antisense AUAUAAGCAUAUUAUAGAGUU; HOTAIR target position 1700-1722 (RNA, backbone not given here) [custom 21-nt duplex siRNA; HOTAIR target position 1700-1722]
reduction of HOTAIR RNA levels [1]: ~57%

Nc1nccc2c1ncn2[C@@H]1C=C(CO)[C@@H](O)[C@H]1O [DZNep, 3-Deazaneplanocin A]
HOTAIR, VEGF-A, ANGPTL4, CTCF, PARP1, P300 and Cytochrome B transcripts ([5]; DZNep 5 μM and HG, compared to SCR HG controls): statistically significant reductions | reduction of EED transcripts [5, 7]: ~61% | reduction of EZH2 transcripts [5, 7]: ~72% | reduction of SUZ12 transcripts [5, 7]: ~48% | ET-1, MCP-1, IL-1β, HOXD3 and HOXD10 transcripts ([5]; DZNep 5 μM pre-treatment plus HG culture): significantly augmented | HOTAIR expressions and its downstream targets ([5]; summary statement in Example 3): can reduce

siHOTAIR SB1: custom 21-nt duplex siRNA; sense CCAAAGAGUCUGAUGUUUACA, antisense UAAACAUCAGACUCUUUGGGG; HOTAIR target position 457-479 (RNA, backbone not given here) [custom 21-nt duplex siRNA; HOTAIR target position 457-479]
reduction of HOTAIR RNA levels [1]: ~67% | transcript levels of VEGF-A, ET-1 and ANGPTL4 [1]: greatest reductions

Reference: patent US20230250478A1, “DIAGNOSIS AND TREATMENT OF CHRONIC DIABETIC COMPLICATIONS USING LONG NONCODING RNAS AS TARGETS” (THE UNIVERSITY OF WESTERN ONTARIO, priority 2020, published 2023)
